# Source: US8389020B1, “Immediate action and long-lasting formulation to control moss and liverwort” (Tara Innovations LLC, priority 2011, dated 2013)
# Tested on: moss
# Assay: Experiment 1: ferrous sulfate/lime mixtures applied to 6″×6″ moss areas in triplicate
# Format: in vivo
# Conditions: in mixture with lime
# Description: In order to establish the effective concentration of ferrous sulfate in the formulation, mixtures of ferrous sulfate and lime with a ferrous sulfate concentration between 0 to 60% (w/w) were prepared (Table I) and applied to 6″×6″ area in triplicate. Water was sprayed over the area. The day time high temperature was 40° F. during the experiment and the night temperature decreased to 28° F. In one day, area with 30% or more ferrous sulfate concentration treatment turned black burning all the moss (Table II). The areas with 10% and 20% […] treatment were black in a week. There was no effect of 100% lime on the moss. Thus, a minimum concentration of 10% is suitable for the satisfactory results within a week. When % ferrous sulfate was more than 30%, the moss turned black in one day.
structure (smiles),measurement,value
"O.O.O.O.O.O.O.O=S(=O)([O-])[O-].[Fe+2] [ferrous sulfate, Ferrous sulfate septahydrate (FeSO4.7H2O)]",Minimum ferrous sulfate concentration suitable for satisfactory results within a week,10%
